Ki data for 21 compounds are collected here from patent publication US6610689B2, “HIV protease inhibitors based on amino acid derivatives” (priority 2001, dated 2003).

For orientation: Ki means a measure of affinity in units of concentration, obtained from inhibition or displacement.

Where only a bound is given, the exact number is not on record here.

One experiment concerns the target T1, HIV protease (Human immunodeficiency virus type 1 group M subtype B, UniProt P04585).
T1 construct: A third viral enzyme known as protease then cleaves the polyproteins
Put plainly: Enzymatic Assay for Determining the Inhibition Constant (Ki) of Synthetic Compounds Targeting the HIV Protease (fluorometric FRET assay). Format: biochemical.
Conditions: not given
An excerpt:
Enzymatic Assay for Determining the Inhibition Constant (Ki) of Synthetic Compounds Targeting the HIV Protease
This is a fluorometric assay based on the cleavage by protease of a substrate carrying a donor group (EDANS) and an acceptor group (DABCYL) on each side of the cleavage site, interacting together through fluorescence resonance energy transfer (FRET) as described by Matayoshi et al. (Science 247:[…], 1990).
After calculation of Vo and Vi, the inhibition constant (Ki) of the compound is determined using the equation of Henderson: [formula]
where Vo=the enzyme's initial velocity
Vi=the enzyme velocity in the presence of the inhibitory compound,
[I]=inhlibitor concentration, [S]=substrate concentration,
Km=Michaelis-Menten constant and Kiapp=apparent Ki
Graphs are traced and the Ki determined using GraphPad Prism software v. 3.0.
In turn, `COc1ccc(CC(=O)N[C@@H](Cc2ccccc2)C(=O)NCCCC[C@@H](CO)N(CC(C)C)S(=O)(=O)c2ccc(C)cc2)cc1` [Example 162, (2S,2′S) 2-N-Isobutyl-2-N-(4-methylbenzenesulfonyl)-6-N-[N′α-(4-methoxyphenylacetyl)-S-phenylalanyl]-2,6-diaminohexanol] displayed an inhibitory constant (Ki) of 1.2 nM. The compound `CC(C)CN([C@H](CO)CCCCNC(=O)[C@H](Cc1c[nH]c2ccccc12)NS(=O)(=O)c1ccccc1)S(=O)(=O)c1ccc(N)cc1` [Example 167, (2S,2′S) 2-N-(4-Aminobenzenesulfonyl)-2-N-isobutyl-6-N-(N′α-benzenesulfonyl-S-tryptophanyl)-2,6-diaminohexanol] came in with a Ki of 1.5 nM. `COc1ccc(S(=O)(=O)N(CC2CCCC2)[C@@H](CCCCNC(=O)[C@H](Cc2c[nH]c3ccccc23)NC(=O)OC(C)(C)C)C(=O)O)cc1` [Example 151, Nα-Cyclopentylnethyl-Nα-(4-methoxybenzenesulfonyl)-Nε-(N′α-tert-butoxycarbonyl-L-tryptophanyl)-L-lysine] registered a Ki of 5.3 nM.

On to `Cc1ccc(S(=O)(=O)N(CC(C)C)[C@@H](CCCCNC(=O)[C@H](Cc2ccccc2)NS(=O)(=O)c2ccccc2)C(=O)O)cc1` [Example 8, Nα-Isobutyl-Nα-(4-methylbenzenesulfonyl)-Nε-(N′α-benzenesulfonyl-L-phenylalanyl)-L-lysine], for which the affinity, expressed as Ki, was 1.9 nM.

Consider `Cc1ccc(S(=O)(=O)N(CC(C)C)[C@@H](CCCCNC(=O)[C@@H](N)Cc2cn(Cc3ccccc3)cn2)C(=O)O)cc1` [Example 92, Nα-Isobutyl-Nα-(4-methylbenzenesulfonyl)-Nε-(Nτ-benzyl-L-histidinyl)-L-lysine], for which the Ki is greater than 300 nM. The same measure, in the same setting: the figure for `Cc1ccc(S(=O)(=O)N(CC(C)C)[C@@H](CCCCNC(=O)[C@H](Cc2c[nH]c3ccccc23)NS(=O)(=O)c2ccccc2)C(N)=O)cc1` [Example 189, Nα-Isobutyl-Nα-(4-methylbenzenesulfonyl)-Nε-(N′α-benzenesulfonyl-L-tryptophanyl)-L-lysine Amide] is 1.9 nM; for `Cc1ccc(S(=O)(=O)N(CC(C)C)[C@@H](CCCCNC(=O)[C@H](Cc2ccccc2)NS(=O)(=O)c2cccs2)C(=O)NO)cc1` [Example 59, Nα-Isobutyl-Nα-(4-methylbenzenesulfonyl)-Nε-[N′α-(2-thiophenesulfonyl)-L-phenylalanyl]-L-lysine N-hydroxylamide] it is 13 nM; for `COC(=O)[C@H](CCCCNC(=S)[C@H](Cc1ccccc1)NS(=O)(=O)c1ccc(C)cc1)N(CC(C)C)S(=O)(=O)c1ccc(C)cc1` [Example 71, Nα-Isobutyl-Nα-(4-methylbenzenesulfonyl)-Nε-[N′α-(4-methylbenzenesulfonyl)-L-thiophenylalanyl]-L-lysine Methyl Ester] it is greater than 300 nM. On the same count and under the same terms, the figure for `Cc1ccc(S(=O)(=O)N(CC(C)C)[C@@H](CCCCNC(=O)[C@H](Cc2ccccc2)NS(=O)(=O)c2ccc([N+](=O)[O-])cc2)C(=O)O)cc1` [Example 10, Nα-Isobutyl-Nα-(4-methylbenzenesulfonyl)-Nε-[N′α-(4-nitrobenzenesulfonyl)-L-phenylalanyl]-L-lysine] is 18 nM. Consider `Cc1ccc(S(=O)(=O)N[C@@H](Cc2c[nH]c3ccccc23)C(=O)NCCCC[C@@H](C(=O)O)N(CC(C)C)S(=O)(=O)c2ccc(N)cc2)cc1` [Example 43, Nα-(4-Aminobenzenesulfonyl)-Nα-isobutyl-Nε-[N′α-(4-methylbenzenesulfonyl)-L-tryptophanyl]-L-lysine], for which the Ki amounted to 0.56 nM. Still for that read-out and setting: then `CC(C)CN(C(CO)CCCCNC(=O)C(Cc1c[nH]c2ccccc12)NC(=O)c1ccccc1)S(=O)(=O)c1ccc(N)cc1` [Example 186, (2S,2′S) 2-N-(4-Aminobenzenesulfonyl)-2-N-isobutyl-6-N-(N′α-benzoyl-S-tryptophanyl)-2,6-diaminohexanol], with 1.7 nM; and `Cc1ccc(S(=O)(=O)N[C@@H](CC(N)=O)C(=O)NCCCC[C@@H](C(=O)O)N(CC(C)C)S(=O)(=O)c2ccc(C)cc2)cc1` [Example 61, Nα-Isobutyl-Nα-(4-methylbenzenesulfonyl)-Nε-[N′α-(4-methylbenzenesulfonyl)-L-asparagyl]-L-lysine], with 296 nM.

`Cc1ccc(S(=O)(=O)N[C@@H](CO)C(=O)NCCCC[C@@H](C(=O)O)N(CC(C)C)S(=O)(=O)c2ccc(C)cc2)cc1` [Example 32, Nα-Isobutyl-Nα-(4-methylbenzenesulfonyl)-Nε-[N′α-(4-methylbenzenesulfonyl)-L-seryl]-L-lysine] returned a Ki of 93 nM. The same measure, in the same setting: the figure for `Cc1ccc(S(=O)(=O)N[C@@H](Cc2ccc([N+](=O)[O-])cc2)C(=O)NCCCC[C@@H](CO)N(CC(C)C)S(=O)(=O)c2ccc(C)cc2)cc1` [Example 124, (2S,2′S) 2-N-Isobutyl-2-N-(4-methylbenzenesulfonyl)-6-N-[N′α-(4-methylbenzenesulfonyl)-S-4-nitrophenylalanyl]-2,6-diaminohexanol] is 12 nM; for `Cc1ccc(S(=O)(=O)N[C@@H](Cc2c[nH]c3ccccc23)C(=O)NCCCC[C@@H](C(=O)O)N(CC(C)C)S(=O)(=O)c2ccc(C)cc2)cc1` [Example 2, Nα-Isobutyl-Nα-(4-methylbenzenesulfonyl)-Nε-[N′α-(4-methylbenzenesulfonyl)-L-tryptophanyl]-L-lysine] it is 0.513 nM.

The experiment is the same for the next values; noted with them: Anti-protease activity of Ne-amino acid substituted L-lysine derivatives and analogs of formula I; read-out: Ki.
For `Cc1ccc(CSC[C@H](NC(=O)OC(C)(C)C)C(=O)NCCCC[C@@H](C(=O)O)N(CC(C)C)S(=O)(=O)c2ccc(C)cc2)cc1` [Example 83, Nα-Isobutyl-Nα-(4-methylbenzenesulfonyl)-Nε-[N′α-tert-butoxycarbonyl-S-(4-methylbenzyl)-L-cysteinyl]-L-lysine], the inhibitory constant (Ki) turned out to be 62 nM.

The same experiment, now with this note: Table 1, compounds of formula I; read-out: Ki (anti-protease activity).
Take `Cc1ccc(S(=O)(=O)N(CC(C)C)[C@@H](CCCCNC(=O)CN(C)c2ccccc2)C(=O)O)cc1` [Example 115, Nα-Isobutyl-Nα-(4-methylbenzenesulfonyl)-Nε-(N′α-methyl-N′α-phenylglycyl)-L-lysine]: the Ki is 12 nM.

As for `Cc1ccc(S(=O)(=O)N(CC(C)C)[C@H](CO)CCCCNC(=O)[C@H](Cc2ccccc2)NS(=O)(=O)c2ccc(F)cc2)cc1` [Example 125, (2S,2′S) 2-N-Isobutyl-2-N-(4-methylbenzenesulfonyl)-6-N-[N′α-(4-fluorobenzenesulfonyl)-S-phenylalanyl]-2,6-diaminohexanol], the Ki turned out to be 39 nM. Take `Cc1ccc(S(=O)(=O)N(CC(C)C)[C@@H](CCCCNC(=O)CN(Cc2ccccc2)c2ccccc2)C(=O)O)cc1` [Example 114, Nα-Isobutyl-Nα-(4-methylbenzenesulfonyl)-Nε-(N′α-benzyl-N′α-phenylglycyl)-L-lysine]: the Ki came to 0.937 nM. Still for that read-out and setting: then `Cc1ccc(S(=O)(=O)N[C@@H](Cc2c[nH]c3ccccc23)C(=O)NCCCC[C@@H](C=O)N(CC(C)C)S(=O)(=O)c2ccc(C)cc2)cc1` [Example 116, (2S,2′S) 2-N-Isobutyl-2-N-(4-methylbenzenesulfonyl)-6-N-[N′α-(4-methylbenzenesulfonyl)-S-tryptophanyl]-2,6-diaminohexanal], with greater than 300 nM. The same measure, in the same setting: then `Cc1ccc(S(=O)(=O)N(CC(C)C)[C@H](CO)CCCCNC(=O)[C@H](Cc2ccccc2)NS(=O)(=O)c2cccs2)cc1` [Example 122, (2S,2′S) 2-N-Isobutyl-2-N-(4-methylbenzenesulfonyl)-6-N-[N′α-(2-thiophenesulfonyl)-S-phenylalanyl]-2,6-diaminohexanol], with 8.2 nM.
